From patent publication US20250339391A1, “METHODS FOR EFFECTIVE MANAGEMENT OF PAIN” (South Rampart Pharma, Inc., priority 2024, published 2025) come the findings set out here.

For data set [1], the system named is Salmonella typhimurium strains and Escherichia coli strain WP2 uvrA. Description: Ames reverse mutation assay. It counts as cell-based. The method, then: (§1) To further evaluate the potential genotoxicity of SRP-001 and determine the validity of the in vitro findings, a second in vivo assay, a GLP-compliant Comet assay, was conducted in accordance with ICH S2(R1) Guidance on Genotoxicity Testing and Data Interpretation for Pharmaceuticals Intended for Human Use. […] SRP-001 was tested to evaluate its mutagenic potential by measuring its ability to induce reverse mutations at selected loci of several strains of Salmonella typhimurium (S. typhimurium) and at the tryptophan locus of Escherichia coli (E. coli) strain WP2 uvrA in the presence and absence of an exogenous metabolic activation system (Bioreliance, Rockville, MD USA). Dimethyl sulfoxide (10% DMSO) was used as the vehicle. The dose levels tested in the preliminary toxicity assay were 6.67, 10.0, 33.3, 66.7, 100, 333, 667, 1000, 3333, and 5000 μg per plate. No precipitate was observed. […] The dose levels tested in the mutagenicity assay were 100, 333, 667, 1000, 3333, and 5000 μg per plate. […] In the preliminary toxicity assay, the doses tested ranged from 0.0405 to 405 μg/mL (1 mM), which was the limit dose for this assay (Bioreliance, Rockville, MD USA).

Data set [2] concerns Chinese Hamster Ovary Cells. Put plainly: In vitro mammalian chromosomal aberration assay. It counts as cell-based. The conditions noted are these: for doses with cytotoxicity: non-activated 20-h exposure. The method, then: as §1
The doses selected for evaluation of chromosome aberrations were 150, 300, and 405 μg/mL for the non-activated and S9-activated 4-h exposure groups; and 10, 40, and 80 μg/mL for the non-activated 20-h exposure group. […] The induction of structural aberrations was outside the 95% control limit of the historical negative control data of 0.00% to 2.79%. […] However, the induction of structural aberrations was within the 95% control limit of the historical negative control data of 0.00% to 4.28%. […] The induction of structural aberrations was outside the 95% control limit of the historical negative control data of 0.00% to 2.68%.

For data set [3], the system named is Beagle dogs. Put plainly: Dose-range-finding oral toxicity study in Beagle dogs, Phase I (non-GLP). In kind it is in vivo, dog. The method, then:
3) A Dose-Range-Finding and 7-day Repeat-Dose Oral Toxicity Study of SRP-001 in Beagle dogs (Non-GLP) Two beagle dogs (1/sex) were administered 30, 100, 250, or 500 mg/kg SRP-001. […] After a period of at least 2 d (minimum of 44 h) following the previous dose of test article, additional dose levels of SRP-001, as indicated above, were administered by oral gavage to the same 2 dogs (1 male and 1 female). Each dose was based on the dog's most recent body weight. Mortality/morbidity was observed twice daily and once prior to scheduled sacrifice. Body weights were recorded prior to randomization/selection, prior to each dose administration, and prior to scheduled sacrifice. At scheduled sacrifice, a gross necropsy was performed, and the tissues were appropriately discarded. […] Doses for Phase II of the study were set based on Phase I results. The actual dose amounts selected for Phase II of the study were 0, 30, 100, or 300 mg/kg/d of SRP-001. These doses were administered once daily for seven consecutive days to 1 Beagle dog/sex/dose.

The subject of data set [4] is Beagle dogs. The note with it: dog, in vivo. The method, then: 8) A 28-day Oral Toxicity Study of SRP-001 in Beagle Dogs with a 14-day Recovery (GLP study) SRP-001 was supplied by Olon Ricerca Bioscience as an off-white powder. The test article was then prepared into dosing suspensions for oral administration via gavage (Calvert Labs/Altasciences, Scott Township, PA USA). Thirty-two experimentally naïve Beagle dogs (16 males and 16 females), 8-9 months old and weighing 6.7-10.5 kg for males and females at the outset of the study, were administered 0, 165, 330, or 495 mg/kg/d. Animals were dosed three times daily (3-5 h between doses) for 28 consecutive days. Prior to this dosing schedule, the dosing was initiated with once daily dosing at 0, 100, 300, or 900 mg/kg at a dose volume of 5 to 10 ml/kg. Due to adverse clinical signs noted following dosing of all groups at a dose volume of 10 ml/kg, dosing of the animals was suspended on day 2 for males and day 1 for females. The study was restarted with T.I.D. dosing in lower dose volume to reduce vehicle-related toxicity.
In-life data from the initial start of the study using once daily dosing were not included in the report but are maintained in the study file. Following the restart of the study, the study was conducted as follows. Mortality/morbidity was performed twice daily and once prior to the scheduled sacrifice. Animals were observed prior to each dose administration and 1-3 h after each dose administration. Animals were also observed once daily on non-dosing days and once prior to scheduled sacrifice. Body weights were recorded prior to randomization/selection, prior to the first dose administration on day 1 and weekly thereafter. Food consumption was determined daily. Ophthalmology examinations and electrocardiograms were performed before treatment initiation and during the last week of dosing. Blood for evaluation of hematology, coagulation and clinical chemistry and urine for urinalysis was collected prior to treatment initiation and on days 29 and 43. Blood for toxicokinetic evaluation was collected at selected timepoints on days 1 and 28. All surviving animals were sacrificed on day 29 or day 43. Selected tissues were harvested at necropsy, selected organs weighed, and selected tissues evaluated microscopically.

A short description of data set [5]: Stability of API and oral nanosuspension. It counts as physicochemical. On the procedure:
The drug therapeutic candidate is manufactured in a two-step process (Latitude Pharmaceuticals, Inc., San Diego, CA USA). First, SRP-001 is jet milled. Second, the milled API is dispersed in a solution comprising 1% hydroxypropyl cellulose (1% HPC) and sterile water for injection and subjected to wet milling. The target particle size is approximately D90 0.15 μm. […] An oral nanoparticle suspension containing 100 mg/mL SRP-001 in aqueous 1% HPC preserved with 0.1% sodium benzoate was manufactured for use in nonclinical studies as Lot LPI2021028 and stored at 5° C.±3° C. […] The same formulation as above was manufactured under cGMP for use in clinical studies as Lot LPI2021031 and stored at 5° C.±3° C. […] This lot has been placed on stability at 5° C., 25° C./60% RH, and 40° C./75% RH. Finally, an appearance-matched placebo consisting of 2% microcrystalline cellulose in aqueous 1% HPC preserved with 0.1% sodium benzoate and 0.05% EDTA disodium dihydrate was manufactured under cGMP for use in clinical studies. The above oral suspensions were manufactured by Latitude Pharmaceuticals Inc. (San Diego, CA, USA).

Turning to `CCN(CC)C(=O)c1ccccc1S(=O)(=O)NCC(=O)Nc1ccc(O)cc1` [SRP-001, N,N-diethyl-2-[[2-(4-hydroxyanilino)-2-oxo-ethyl]sulfamoyl]benzamide], in data set [1] (100-5000 μg per plate, with and without S9), the “mutagenic response (reverse mutations)” value is listed as “No positive mutagenic responses were observed”. In addition, the precipitate and toxicity result in data set [1] (mutagenicity assay, up to 5000 μg per plate) is listed as “Neither precipitate nor toxicity was observed”. In addition, the “dose with toxicity (reduction in the revertant count)” value in data set [1] (preliminary toxicity assay, TA1537 and WP2 uvrA, absence of S9) is recorded as 5000 μg per plate. Also, the “induction of numerical chromosomal aberrations, conclusion” value in data set [2] is recorded as “negative for the induction of numerical chromosomal aberrations”. Moreover, the structural aberrations in data set [2] (Chinese hamster, 20 h, 80 μg/mL) is listed as 3.7%. The compound also yielded a dose with cytotoxicity in data set [2] (chromosome aberration assay, non-activated 4-h exposure) of 405 µg/mL. Further, the doses with cytotoxicity in data set [2] (chromosome aberration assay) is at least 70 µg/mL; in data set [2] (preliminary toxicity assay) it was at least 122 µg/mL. In addition, in the data set with Beagle dogs [3] (30, 100, 250 or 500 mg/kg), the “body weight and food consumption” value was “No test article-related effects”. Also, the clinical signs entry in the data set with Beagle dogs [3] (30, 100, 250 or 500 mg/kg oral gavage) was “Loose feces and emesis were observed following most doses”. The “reversibility after 14-d recovery” value with Beagle dogs [4] (both, Beagle, 14 d) is recorded as “nearly all SRP-001-related changes observed on day 29 were reversible”. In addition, the no-adverse-effect level in the data set on Beagle dogs [4] (both, Beagle, 28 d) was 330 mg/kg/day. Moreover, the “doses without treatment-related adverse effects” value in the data set on Beagle dogs [4] (both, Beagle, po, 28 d) is recorded as “up to 330 mg/kg/day”. Moreover, in the data set on Beagle dogs [4], the hematology finding result is on record as “regenerative anemia”. Also, the “API stable for” value in data set [5] (25° C./60% RH) was “at least 9 months”; in data set [5] (40° C./75% RH), at least 6 months.
